Literature values, collected in patent publication US20060183719A1 (priority 2005, published 2006).
Like-named read-outs stand apart in the source and are kept apart here.

Compound	absorption (in vivo, po)	absorption (administered orally)
CN(C)c1ccc(O)c2c1CC1CC3C(N(C)C)C(O)=C(C(N)=O)C(=O)C3(O)C(O)=C1C2=O (centres unmarked) [minocycline]	about 90%	–
C[C@H]1c2cccc(O)c2C(=O)C2=C(O)[C@]3(O)C(=O)C(C(N)=O)=C(O)[C@@H](N(C)C)[C@@H]3[C@@H](O)[C@@H]21 [doxycycline]	–	about 90%
